Experimental findings from patent US20230009608A1, “GRK2 INHIBITORS AND USES THEREOF” (Cygnal Therapeutics, Inc., priority 2020, published 2023) are described below.

One assay concerns the target T1, GRK2 (Homo sapiens, UniProt P25098).
T1 construct: purchased SignalChem A14-10G
T1 sequence (P25098 1-689): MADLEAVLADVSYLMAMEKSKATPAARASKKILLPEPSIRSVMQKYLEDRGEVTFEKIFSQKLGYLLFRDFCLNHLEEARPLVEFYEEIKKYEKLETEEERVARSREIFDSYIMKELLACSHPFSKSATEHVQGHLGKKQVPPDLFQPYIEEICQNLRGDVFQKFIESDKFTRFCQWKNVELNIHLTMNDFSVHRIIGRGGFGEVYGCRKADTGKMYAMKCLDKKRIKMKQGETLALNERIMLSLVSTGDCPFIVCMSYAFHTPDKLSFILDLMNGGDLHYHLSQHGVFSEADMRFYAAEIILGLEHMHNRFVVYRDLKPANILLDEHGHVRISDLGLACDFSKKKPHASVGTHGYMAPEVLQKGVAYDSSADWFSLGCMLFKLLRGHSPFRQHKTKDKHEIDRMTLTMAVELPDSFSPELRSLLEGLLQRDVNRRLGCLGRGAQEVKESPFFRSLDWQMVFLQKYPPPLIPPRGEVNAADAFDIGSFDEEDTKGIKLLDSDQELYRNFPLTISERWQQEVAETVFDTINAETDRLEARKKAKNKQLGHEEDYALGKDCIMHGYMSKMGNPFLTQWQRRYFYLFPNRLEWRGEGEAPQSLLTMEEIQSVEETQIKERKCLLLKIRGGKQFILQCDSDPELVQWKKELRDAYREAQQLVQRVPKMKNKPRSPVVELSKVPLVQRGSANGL
Briefly: ADPGlo GRK2 Inhibition Assay (Example 8). The class given is biochemical. The note with it: read-out: A: Enzymatic GRK2: IC50 (nM) (Example 8). In outline:
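GRK2 (15 nM 2× enzyme solution) was preincubated 15 min with compound, then reacted 180 min at room temperature with 2× mix of 20 μM ATP plus GRKtide in HEPES pH 7.5, MgCl2, Tween-20, DTT. ADP was detected by ADP-Glo luminescence. Percent inhibition was normalised to enzyme and no-enzyme controls, with dose-response curves from threefold dilutions starting at 100 μM.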

Assay [1] concerns PAXF1657 control empty vector cell line. Nature of the assay: 7-day proliferation assay, PAXF1657 control empty vector cell line (Example 9). The class given is cell-based. As to conditions: 168 h; Cell Line: PAXF1657 empty vector (EV) cell line; 7-day; read-out: C: 7-day proliferation assay: IC50 GeoMean. In outline: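 PAXF1657 pancreatic cancer cells (GRK2-overexpressing vs empty vector; CRISPR GRK2 knockout vs non-targeting control) were seeded at 500 cells/well in RPMI1640/10% FBS, then given a 10-point series, 30 μM-0.0002 μM in 0.3% DMSO. Medium and compound were refreshed after 3 days; CellTiter-Glo luminescence was read at day 7.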

[2] abbreviates: Enzyme Assay A, ADPGlo (Example 8).

Where two headings read alike, the source gives them in different places. A value given as a limit tells only on which side of the number the result lay.

Consider `Cn1c(CNc2cccc(C(=O)NC(C)(C)c3ccncc3)c2)nnc1-c1ccncn1`, for which the IC50 at GRK2 (setting [2]) is 49 nM; in assay [1], more than 10000 nM.

With `CCn1ncc(Cl)c1CNC(=O)c1cccc(NCc2nnc(-c3ccncn3)n2C)c1`, the IC50 was 16 nM on GRK2 (setting [2]) and more than 10000 nM in assay [1].

With `Cn1c(CNc2cccc(C(=O)NCc3ncccc3F)c2)nnc1-c1ccncn1`, the IC50 was 69 nM on GRK2 (setting [2]) and 164 nM in assay [1].

Turning to `COCC(NC(=O)c1cccc(NCc2nnc(-c3ccncn3)n2C)c1)c1ccccc1` (stereo not drawn), the IC50 is 36 nM on GRK2 (setting [2]) and more than 10000 nM in assay [1].

Consider `COc1cccc2c1OCC[C@H]2NC(=O)c1cccc(NCc2nnc(-c3ccncn3)n2C)c1`, for which the IC50 turned out to be 26.1 nM on GRK2 (setting [2]) and 7740 nM in assay [1].

Consider `COc1cccc2c1OCC[C@@H]2NC(=O)c1cccc(NCc2nnc(-c3ccncn3)n2C)c1`, for which the IC50 came out at 87.5 nM at GRK2 (setting [2]) and 470 nM in assay [1].

Turning to `COc1ccc2c(c1)OCC[C@H]2NC(=O)c1cccc(NCc2nnc(-c3ccncn3)n2C)c1`, the figures for the IC50 (on GRK2 (setting [2]); in assay [1]) were 60.9 nM and 485 nM, respectively.

For `COc1ccc2c(c1)[C@H](NC(=O)c1cccc(NCc3nnc(-c4ccncn4)n3C)c1)CCO2`, the IC50 at GRK2 (setting [2]) was 15.2 nM; in assay [1] it was more than 30000 nM.

On to `Cn1c(CNc2cccc(C(=O)N[C@@H]3CCOc4ccc(C(F)(F)F)cc43)c2)nnc1-c1ccncn1`, for which the IC50 at GRK2 (setting [2]) came to 8.09 nM; in assay [1] it was 594 nM.

Regarding `Cn1c(CNc2cccc(C(=O)N[C@H]3CCOc4ccc(C(F)(F)F)cc43)c2)nnc1-c1ccncn1`, the IC50 was 834 nM on GRK2 (setting [2]) and 28500 nM in assay [1].

For the molecule `CNS(=O)(=O)c1cccc(F)c1CNC(=O)c1cccc(NCc2nnc(-c3ccncc3)[nH]2)c1`, the results for the IC50 (on GRK2 (setting [2]); in assay [1]) were 5.38 nM and 3620 nM, respectively.

Regarding `O=C(N[C@@H]1COc2cc(F)ccc21)c1cccc(NCc2nnc(-c3ccncc3)[nH]2)c1`, the IC50 at GRK2 (setting [2]) is 7.92 nM; in assay [1] it was 607 nM.

For `O=C(N[C@H]1COc2cc(F)ccc21)c1cccc(NCc2nnc(-c3ccncc3)[nH]2)c1`, the IC50 was determined as 27.9 nM on GRK2 (setting [2]) and 4070 nM in assay [1].

On to `Cn1c(CNc2cccc(C(=O)N[C@@H](CCO)c3ccccc3)c2)nnc1-c1ccncn1`, for which the IC50 was 65.9 nM on GRK2 (setting [2]) and 13100 nM in assay [1].

As for `Cn1c(CNc2cccc(C(=O)N[C@H](CCO)c3ccccc3)c2)nnc1-c1ccncn1`, the IC50 was found to be 9.54 nM on GRK2 (setting [2]) and 4190 nM in assay [1].

In the case of `Cn1c(CNc2cccc(C(=O)N[C@@H]3COc4cc(F)ccc43)c2)nnc1-c1ccncn1`, the IC50 on GRK2 (setting [2]) turned out to be 25.8 nM; in assay [1], 117 nM.

For the molecule `Cn1c(CNc2cccc(C(=O)N[C@H]3COc4cc(F)ccc43)c2)nnc1-c1ccncn1`, the IC50 on GRK2 (setting [2]) is 9.03 nM; in assay [1], more than 30000 nM.

Consider `CCCn1c(CNc2cccc(C(=O)NCc3c(F)cccc3S(=O)(=O)NC)c2)nnc1-c1ccncn1`, for which the IC50 at GRK2 (setting [2]) was 22.2 nM; in assay [1], more than 3200 nM.

In the case of `CCCn1c(CNc2cccc(C(=O)N[C@@H]3COc4cc(F)ccc43)c2)nnc1-c1ccncn1`, the IC50 at GRK2 (setting [2]) is 3.35 nM; in assay [1], more than 30000 nM.

With `CCCn1c(CNc2cccc(C(=O)N[C@H]3COc4cc(F)ccc43)c2)nnc1-c1ccncn1`, the IC50 at GRK2 (setting [2]) was 10.5 nM; in assay [1] it was more than 30000 nM.

Regarding `CNS(=O)(=O)c1cccc(F)c1CNC(=O)c1cccc(NCc2nnc3n2CCOc2cnccc2-3)c1`, the IC50 on GRK2 (setting [2]) came out at 85.3 nM; in assay [1] it was 2840 nM.

Consider `O=C(N[C@@H]1COCc2ccccc21)c1cccc(NCc2nnc(-c3ccncn3)n2CCO)c1`, for which the IC50 was determined as 1.47 nM at GRK2 (setting [2]) and 592 nM in assay [1].

Consider `O=C(N[C@H]1COCc2ccccc21)c1cccc(NCc2nnc(-c3ccncn3)n2CCO)c1`, for which the IC50 at GRK2 (setting [2]) is 38.1 nM; in assay [1], more than 2110 nM.

Turning to `O=C(N[C@@H]1COc2cc(F)ccc21)c1cccc(NCc2nnc(-c3ccncn3)n2CCO)c1`, the IC50 at GRK2 (setting [2]) was determined as 22.4 nM; in assay [1], 25.4 nM.

For `O=C(N[C@H]1COc2cc(F)ccc21)c1cccc(NCc2nnc(-c3ccncn3)n2CCO)c1`, the IC50 at GRK2 (setting [2]) was 3.84 nM; in assay [1], 256 nM.

For the molecule `O=C(N[C@@H]1COCc2ccccc21)c1cccc(NCc2nnc(-c3ccncc3)n2CCO)c1`, the results for the IC50 (on GRK2 (setting [2]); in assay [1]) were 9.28 nM and more than 30000 nM, respectively.

In the case of `O=C(N[C@H]1COCc2ccccc21)c1cccc(NCc2nnc(-c3ccncc3)n2CCO)c1`, the IC50 on GRK2 (setting [2]) was determined as 10.9 nM; in assay [1] it was 41.6 nM.

`O=C(N[C@@H]1COCc2c(Cl)cccc21)c1cccc(NCc2nnc(-c3ccncc3)n2CCO)c1`: the IC50 at GRK2 (setting [2]) was 9.91 nM; in assay [1] it was 24.2 nM.

As to `O=C(N[C@H]1COCc2c(Cl)cccc21)c1cccc(NCc2nnc(-c3ccncc3)n2CCO)c1`, the IC50 was 7.18 nM on GRK2 (setting [2]) and more than 30000 nM in assay [1].

For the molecule `O=C(N[C@@H]1COc2cc(F)ccc21)c1cccc(NCc2nnc(-c3ccncc3)n2CCO)c1`, the results for the IC50 (on GRK2 (setting [2]); in assay [1]) were 4.8 nM and 3130 nM, respectively.

`O=C(N[C@H]1COc2cc(F)ccc21)c1cccc(NCc2nnc(-c3ccncc3)n2CCO)c1`: the IC50 was 23.2 nM at GRK2 (setting [2]) and more than 30000 nM in assay [1].

Take `Cn1c(CNc2cccc(C(=O)N[C@@H]3COCc4ccccc43)c2)nnc1-c1ccncc1F`: the values for the IC50 (on GRK2 (setting [2]); in assay [1]) were 227 nM and more than 30000 nM, respectively.

As for `Cn1c(CNc2cccc(C(=O)N[C@H]3COCc4ccccc43)c2)nnc1-c1ccncc1F`, the IC50 worked out at 32.5 nM on GRK2 (setting [2]) and 61.5 nM in assay [1].

On to `Cn1c(CNc2cccc(C(=O)N[C@@H]3COCc4c(Cl)cccc43)c2)nnc1-c1ccncc1F`, for which the IC50 is 60.4 nM at GRK2 (setting [2]) and more than 30000 nM in assay [1].

Take `Cn1c(CNc2cccc(C(=O)N[C@H]3COCc4c(Cl)cccc43)c2)nnc1-c1ccncc1F`: the IC50 at GRK2 (setting [2]) was found to be 21.9 nM; in assay [1], 245 nM.

In the case of `CNS(=O)(=O)c1cccc(F)c1CNC(=O)c1cccc(NCc2nnc(-c3ccncc3F)n2C)c1`, the results for the IC50 (on GRK2 (setting [2]); in assay [1]) were 33.9 nM and 2700 nM, respectively.

As to `Cn1c(CNc2cccc(C(=O)N[C@@H]3COc4cc(F)ccc43)c2)nnc1-c1ccncc1F`, the IC50 on GRK2 (setting [2]) amounted to 22.7 nM; in assay [1], 201 nM.

`Cn1c(CNc2cccc(C(=O)N[C@H]3COc4cc(F)ccc43)c2)nnc1-c1ccncc1F`: the IC50 was 111 nM on GRK2 (setting [2]) and more than 30000 nM in assay [1].

Take `CNS(=O)(=O)c1cccc(F)c1CNC(=O)c1cccc(NCc2nnc(-c3ccncc3)n2C)c1`: the results for the IC50 (on GRK2 (setting [2]); in assay [1]) were 15.2 nM and 1240 nM, respectively.

As for `Cn1c(CNc2cccc(C(=O)N[C@H]3CCOc4c(Cl)cccc43)c2)nnc1-c1ccncc1`, the IC50 at GRK2 (setting [2]) is 32.1 nM; in assay [1], more than 30000 nM.

With `Cn1c(CNc2cccc(C(=O)N[C@@H]3CCOc4c(Cl)cccc43)c2)nnc1-c1ccncc1`, the IC50 at GRK2 (setting [2]) was 27.5 nM; in assay [1], more than 865 nM.

With `Cn1c(CNc2cccc(C(=O)N[C@H]3COc4cc(F)ccc43)c2)nnc1-c1ccncc1`, the IC50 at GRK2 (setting [2]) was 6.81 nM; in assay [1], more than 7490 nM.

Regarding `Cc1cccc2ncc(CNC(=O)c3cccc(NCc4nnc(-c5ccncc5)[nH]4)c3)n12`, the IC50 was 8.9 nM at GRK2 (ADPGlo GRK2 enzyme assay) and more than 10200 nM in assay [1].

Consider `Cc1cccnc1CNC(=O)c1cccc(NCc2nnc(-c3ccncc3)[nH]2)c1`, for which the IC50 was 12.2 nM on GRK2 (ADPGlo GRK2 enzyme assay) and more than 30000 nM in assay [1].

For `[2H]C([2H])(Nc1cccc(C(=O)N[C@@H]2COc3ccccc32)c1)c1nnc(-c2ccncn2)n1CCO`, the IC50 was determined as 3.76 nM at GRK2 (ADPGlo GRK2 enzyme assay) and 96 nM in assay [1].

`Cc1cccc2ncc(CNC(=O)c3cccc(NCc4nnc(-c5ccncc5F)n4C)c3)n12`: the IC50 on GRK2 (ADPGlo GRK2 enzyme assay) was 3.91 nM; in assay [1] it was more than 1360 nM.

Consider `Cn1c(CNc2cccc(C(=O)NCc3cnc4ccccn34)c2)nnc1-c1ccncc1F`, for which the results for the IC50 (at GRK2 (ADPGlo GRK2 enzyme assay); in assay [1]) were 39 nM and more than 30000 nM, respectively.

Consider `Cn1c(CNc2cccc(C(=O)N[C@H](CCO)c3ccccc3)c2)nnc1-c1ccncc1F`, for which the IC50 at GRK2 (ADPGlo GRK2 enzyme assay) is 18 nM; in assay [1], more than 30000 nM.

As to `Cn1c(CNc2cccc(C(=O)N[C@@H](CCO)c3ccccc3)c2)nnc1-c1ccncc1F`, the results for the IC50 (on GRK2 (ADPGlo GRK2 enzyme assay); in assay [1]) were 28.9 nM and more than 1440 nM, respectively.

For the molecule `Cn1c(CNc2cccc(C(=O)NCc3ccccc3C(F)(F)F)c2)nnc1-c1ccncc1F`, the IC50 on GRK2 (ADPGlo GRK2 enzyme assay) was 39.1 nM; in assay [1] it was more than 2320 nM.

Take `[2H]C([2H])(Nc1cccc(C(=O)N[C@H]2CCOc3ccccc32)c1)c1nnc(-c2ccncn2)n1CCO`: the IC50 at GRK2 (ADPGlo GRK2 enzyme assay) came to 3.23 nM; in assay [1], 94 nM.
